Test results as given in US7109245B2, “Vasoconstrictor cannabinoid analogs” (priority 2001, dated 2006).
“Also recorded” adds a separate entry of the source. Like-named read-outs stand apart in the source and are kept apart here.

Columns and labels:
[1] = molecular target: brain cannabinoid (CB1) receptor (Homo sapiens, UniProt P21554); conditions: cited from earlier work
ICR mice = assay: Blood pressure of pentobarbital-anesthetized ICR mice (femoral artery cannula); format: in vivo, mouse
Excerpt: By way of example, ICR mice were anesthetized with pentobarbital, and polyethylene cannulae were inserted into the femoral artery and vein for monitoring blood pressure and injecting drugs, respectively. Blood pressure was monitored directly by connecting the arterial cannula to a pressure transducer and physiograph.

[2] = test system: Rat isolated mesenteric branch arteries; assay: Vasorelaxation of rat isolated mesenteric branch arteries precontracted with phenylephrine, wire myograph
Method: Arteries were mounted in a wire myograph, and precontracted with phenylephrine. Relaxation is expressed as % of the phenylephrine-induced vasoconstrictor tone, 0% representing maximal relaxation.
Rat isolated mesenteric branch arteries (˜200 μm in diameter) were precontracted with phenylephrine and measurements were recorded with a wire myograph.

rats and mice = conditions: in vivo; cited from earlier work
mesenteric arteries [3] = conditions: cited from earlier work; for dilation of isolated mesenteric arteries: normal rats and mice, CB1 knockout and CB1/CB2 double knockout mice
mesenteric arteries [4] = assay: Mesenteric vasodilator response
[5] = test system: normal rats and mice, CB1 knockout mice, CB1/CB2 double knockout mice; conditions: cited from earlier work
LPS-induced hypotension = LPS-induced hypotension in anesthetized mice; format: in vivo, mouse
Excerpt: Endotoxin was used to induce hypotension in control mice as well as in mice deficient in CB1 or both CB1 and CB2 receptors.

[6] = test system: mesenteric branch arteries isolated from wild-type and CB1 receptor deficient mice; assay: Calcium-induced relaxation of mouse isolated mesenteric branch arteries precontracted with norepinephrine; conditions: 10 μM O-1918

Sequence of brain cannabinoid (CB1) receptor (P21554 whole entry, species assumed): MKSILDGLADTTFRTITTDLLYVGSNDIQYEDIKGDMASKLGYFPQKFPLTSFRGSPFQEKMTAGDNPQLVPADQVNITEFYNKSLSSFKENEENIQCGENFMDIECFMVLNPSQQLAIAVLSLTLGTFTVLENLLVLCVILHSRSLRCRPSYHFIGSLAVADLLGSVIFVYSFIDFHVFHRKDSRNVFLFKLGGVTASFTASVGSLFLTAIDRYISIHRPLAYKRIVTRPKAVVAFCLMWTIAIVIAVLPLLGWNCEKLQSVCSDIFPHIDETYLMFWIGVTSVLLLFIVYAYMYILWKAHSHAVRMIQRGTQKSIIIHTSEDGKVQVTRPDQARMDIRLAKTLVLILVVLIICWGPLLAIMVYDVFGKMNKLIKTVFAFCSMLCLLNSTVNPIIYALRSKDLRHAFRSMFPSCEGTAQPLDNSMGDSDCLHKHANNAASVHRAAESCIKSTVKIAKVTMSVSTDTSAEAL

## C=C(C)[C@@H]1CCC(C)=C[C@H]1c1c(O)cc(O)cc1CCCCC [Abn-cbd, abnormal cannabidiol]
[1]
  binding to CB1 receptor: does not bind to CB1 receptors
ICR mice; intravenous injection of 10 mg/kg Abn-cbd
  effect on blood pressure: transient drop in blood pressure followed by a brief increase and then a more prolonged, significant decrease in pressure
[2]
  type of agonism in vasorelaxation: full agonist
[2]; Abn-cbd alone, read-out: vasorelaxation EC50
  EC50: 3.3 ± 0.5 µM
[2]; in the presence of 10 μM O-1918, read-out: vasorelaxation EC50 in the presence of O-1918
  EC50: 26 ± 10 µM
Rats and mice
  neurobehavioral effects: does not elicit cannabinoid-like neurobehavioral effects
Mesenteric arteries [3]
  dilation of isolated mesenteric arteries: dilate isolated mesenteric arteries
Mesenteric arteries [4]; 100 μM L-NAME and 10 μM indomethacin
  vasodilator response in presence of L-NAME and indomethacin: remains unchanged
Mesenteric arteries [4]; bolus injection of 4 mg Abn-cbd, 5 μM capsazepine
  vasodilation in presence of capsazepine: elicited the same long lasting vasodilation
[5]; normal rats and mice, CB1 knockout and CB1/CB2 double knockout mice
  effect on blood pressure: lower blood pressure

## CCCCCCC(C)(C)c1cc(O)c2c(c1)OC(C)(C)[C@@H]1CC=C(CO)C[C@@H]21 [HU-210]
[5]; CB1 receptor deficient mice
  hypotensive effect in CB1 receptor deficient mice: absent

## C=C(C)C1CCC(C)=CC1c1c(OC)cc(C)cc1OC (stereo not shown) [O-1918]
LPS-induced hypotension; 10 mg/kg O-1918, normal anesthetized mice, 100 mg/kg LPS
  prevention of LPS-induced hypotension: prevent the hypotension
LPS-induced hypotension; pretreatment 1 to 10 mg/kg O-1918, ICR mice, 100 ng/kg LPS i.v., FIG. 3
  inhibition of LPS-induced hypotension: dose-dependently inhibited
[6]
  inhibition of calcium-induced relaxation: inhibited the calcium-induced relaxation
ICR mice; 10 mg/kg O-1918, 10 min before 10 mg/kg Abn-cbd, FIG. 1A
  antagonism of hypotensive effect of Abn-cbd: the prolonged hypotensive phase of the effect of Abn-cbd was absent
ICR mice; 10 mg/kg O-1918 injected alone
  effect on blood pressure of the antagonist alone: did not influence blood pressure
ICR mice; FIG. 1B
  antagonism of hypotensive effect of HU-210 (CB1/CB2 agonist): did not antagonize the hypotensive effect of HU-210
[2]; 10 μM O-1918
  inhibition of vasorelaxation caused by CGRP: did not inhibit the vasorelaxation
  inhibition of vasorelaxation caused by carbachol: did not inhibit the vasorelaxation
[2]; concentrations up to 30 μM
  effect on vascular tone: did not alter vascular tone
[2]; preincubation with 1–10 μM O-1918, FIG. 4
  shift of dose-response curve to Abn-cbd: progressively right-shifted; also recorded: concentration-dependent inhibition of the relaxing effect of Abn-cbd

## Cc1c(C(=O)NN2CCCCC2)nn(-c2ccc(Cl)cc2Cl)c1-c1ccc(Cl)cc1 [SR141716A]
LPS-induced hypotension; pretreatment 3 mg/kg SR141716A, wild-type mice, CB1 deficient and CB1/CB2 deficient mice, FIG. 2
  inhibition of LPS-induced hypotension: inhibited; also recorded: could be prevented

## C=C(C)[C@@H]1CCC(C)=C[C@H]1c1c(O)cc(CCCCC)cc1O [cannabidiol]
Rats and mice
  neurobehavioral effects: devoid of neurobehavioral effects
Mesenteric arteries [3]; mesenteric
  antagonism of vasodilator effect of Abn-cbd: able to antagonize the vasodilator effect of Abn-cbd
Mesenteric arteries [3]
  dilation of isolated mesenteric arteries: does not elicit mesenteric vasodilation
